# Data from patent publication US20260009799A1, “CA-IX TARGETING FLUORESCENT PROBES” (BRACCO IMAGING S.P.A., priority 2022, published 2026).
# How the values were obtained:
# [1] = Optical characterization (excitation/emission maxima, molar extinction coefficient); type: physicochemical; details: in water
# [2] = molecular target: recombinant bovine CA-II enzyme (bCAII) (Bos taurus, UniProt P00921); assay: Fluorescence-based dansylamide (DNSA) displacement assay on carbonic anhydrase catalytic site; details: for KD for bCAII, times lower than corresponding reference compound bearing the same cyanine dye: compound 1 vs Reference 2, compound 2 vs Reference 3
# Sequence of recombinant bovine CA-II enzyme (bCAII) (P00921 whole entry): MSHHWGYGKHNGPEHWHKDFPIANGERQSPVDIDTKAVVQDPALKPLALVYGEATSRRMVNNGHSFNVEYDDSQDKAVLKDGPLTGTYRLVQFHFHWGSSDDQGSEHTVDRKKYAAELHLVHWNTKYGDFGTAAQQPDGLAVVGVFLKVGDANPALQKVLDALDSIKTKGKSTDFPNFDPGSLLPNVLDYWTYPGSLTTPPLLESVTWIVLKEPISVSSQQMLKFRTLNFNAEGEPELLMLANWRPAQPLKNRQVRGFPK
# [3] = system: HT-29 excised tumors and tissues; assay: Ex vivo biodistribution in excised tumors and organs; design: species or system mice; details: for ex vivo TBR, times higher than respective References 2 and 3: 1 nmol/mouse, 24 hours; for Organ-to-muscle ratio, intestine (mean ± SD) / Organ-to-muscle ratio, kidney (mean ± SD) / Organ-to-muscle ratio, liver (mean ± SD) / Organ-to-muscle ratio, skin (mean ± SD) / Organ-to-muscle ratio, spleen (mean ± SD) / Organ-to-muscle ratio, stomach (mean ± SD): ex vivo, 24 hours after administration; for Organ-to-muscle ratio, intestine (mean ± SD) / Organ-to-muscle ratio, kidney (mean ± SD) / Organ-to-muscle ratio, liver (mean ± SD) / Organ-to-muscle ratio, skin (mean ± SD) / Organ-to-muscle ratio, spleen (mean ± SD) / Organ-to-muscle ratio, stomach (mean ± SD) / ex vivo TBR (mean ± SD), HT-29 tumor: 1 nmol; for ex vivo TBR (mean ± SD), HT-29 tumor: samples collected 24 hours after administration, tumor vs hind limb muscle
# Description: The ex vivo biodistribution of the representative compounds 1 and 2 and of the reference compounds (at 1 nmol/mouse) was evaluated in HT-29 excised tumors and tissues at the end of the in vivo OI sessions 24 hours post intravenous administration. At the end of the in vivo experiment, animals were euthanized by overdose of gaseous anesthesia followed by cervical dislocation. Tumor tissue, muscle, and other organs of interest were removed for ex vivo fluorescent signal measurements. The fluorescence signal intensity was measured by the IVIS Spectrum system. Regions of interest (ROIs) were drawn around each organ and tumor using the Living Image Software (PerkinElmer) and evaluating signal intensity in the tissues (expressed as Average Radiant Efficiency). The ratio between the fluorescence signal in the organs and tumor was then calculated to assess the contrast to hind limb muscle (representing the background).
# [4] = molecular target: T1, human serum albumin (HSA) (Homo sapiens, UniProt P02768); assay: Binding to albumin (ultrafiltration, absorbance of filtrates); type: in vitro ADME; details: 4.76 μM probe in PBS, 10 KDa cut off ultrafiltration, 25° C.; read-out: HSA affinity (KA, M^−1) (converted)
# T1 construct: purchased Sigma-Aldrich A9511
# T1 sequence (P02768 25-609): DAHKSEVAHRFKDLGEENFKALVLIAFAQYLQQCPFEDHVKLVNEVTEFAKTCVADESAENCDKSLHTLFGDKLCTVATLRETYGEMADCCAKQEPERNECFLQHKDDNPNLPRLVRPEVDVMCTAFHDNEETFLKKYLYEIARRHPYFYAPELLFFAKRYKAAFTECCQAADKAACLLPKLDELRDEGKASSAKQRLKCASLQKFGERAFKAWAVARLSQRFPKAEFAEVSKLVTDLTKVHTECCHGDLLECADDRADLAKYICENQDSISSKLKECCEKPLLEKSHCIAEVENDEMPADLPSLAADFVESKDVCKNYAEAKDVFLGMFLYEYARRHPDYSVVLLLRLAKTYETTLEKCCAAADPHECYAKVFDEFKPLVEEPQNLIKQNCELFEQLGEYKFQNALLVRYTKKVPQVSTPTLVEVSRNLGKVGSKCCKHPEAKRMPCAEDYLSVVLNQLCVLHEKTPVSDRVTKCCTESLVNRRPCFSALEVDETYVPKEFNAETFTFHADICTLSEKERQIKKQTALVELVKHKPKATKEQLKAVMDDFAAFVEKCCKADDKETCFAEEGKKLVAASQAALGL
# Description: The affinity of the probes for human serum albumin (HSA) was determined to assess the influence of structural features on their albumin binding properties. Briefly, HSA (A9511, Sigma-Aldrich) was prepared in a […] stock solution in PBS and used to obtain a series of dilutions in PBS (0, 9.52·10^−7, 4.76·10^−6, 9.52·10^−6, 1.90·10^−5, 3.81·10^−5, 5.71·10^−5, 9.52·10^−5, 1.43·10^−4, 1.90·10^−4, 2.86·10^−4, 3.81·10^−4 M), in presence of 4.76 μM of the CA-IX-targeting probe (prepared from a 50 μM stock solution in PBS), in a total volume of 0.525 mL. The samples were centrifuged (10000 g for 30 min at 25° C.) in a Microcon device (10 KDa MW cut off, Amicon Ultra-0.5 Centrifugal Filter Unit with Ultracel-10 membrane) and the absorbance measurements of the filtrates were obtained with the spectrophotometer at the maximum absorbance wavelength of the fluorophore.
# Data analysis was performed by fitting the raw data, using Microsoft Excel Solver, with the equation:
# where ΔA/b=Absorbance measured (b=1 cm), KRL=KA calculated by fitting, Δε·Rt are calculated by fitting, and [L]=HSA concentration. ΔA/b values were experimentally obtained by subtracting the absorbance of “0 HSA sample” to the absorbance of each other sample.
# target receptor CA-IX = molecular target: T2, target receptor CA-IX (Homo sapiens, UniProt Q16790); assay: Cell uptake competition with 100x excess acetazolamide; type: cell-based; details: for % uptake in presence of 100x excess acetazolamide: 1 μM, 2 hours at 37° C., residual cellular uptake; for share of cell-associated fluorescence due to non-specific cellular uptake: flow cytometry
# T2 construct: endogenous in cells
# Description: The receptor-mediated uptake, i.e. whether the uptake of the probes was mediated by binding to the target receptor CA-IX, was analyzed by performing competition experiments.
# CA-IX on HT-29 cells = molecular target: T3, CA-IX on HT-29 cells (Homo sapiens, UniProt Q16790); assay: Cellular specificity: binding to HT-29 cells in competition with MSC8 antibody; type: cell-based; details: compound 1 0.125 μM, MSC8 0.0125/0.125/1.25/2.5 μM, on ice
# T3 construct: CA-IX, expressed in its physiological environment at the cell-surface; host or cells: HT-29 human colorectal adenocarcinoma cells
# Description: HT-29 cells were co-incubated, on ice in suspension, with compound 1, at the established concentration of 0.125 μM, and different concentrations of MSC8 (0.1×, 1×, 10× and 20× with respect to compound 1, i.e. 0.0125/0.125/1.25/2.5 μM); in addition, HT-29 cells were incubated with either compound 1 alone, or each concentration of MSC8 alone as well. The resulting binding of both compound 1 and MSC8 was then recorded as cell-associated fluorescence intensity, using for MSC8 a secondary antibody labelled with Alexa Fluor™ 488 (ThermoFischer), and compared to the one resulting from both compounds alone, taken as 100%.
molar extinction coefficient (ε) [1] [M⁻¹ cm⁻¹],Kd [2] [µM],"KD for bCAII, times lower than corresponding reference compound bearing the same cyanine dye [2] [times]","Organ-to-muscle ratio, intestine (mean ± SD) [3]","Organ-to-muscle ratio, kidney (mean ± SD) [3]","Organ-to-muscle ratio, liver (mean ± SD) [3]","Organ-to-muscle ratio, skin (mean ± SD) [3]","Organ-to-muscle ratio, spleen (mean ± SD) [3]","Organ-to-muscle ratio, stomach (mean ± SD) [3]",Kd [4] [µM],% uptake in presence of 100x excess acetazolamide (target receptor CA-IX) [%],share of cell-associated fluorescence due to non-specific cellular uptake (target receptor CA-IX),binding of compound 1 to HT-29 cells in presence of MSC8 (CA-IX on HT-29 cells),SMILES,"ex vivo TBR, times higher than respective References 2 and 3 [3]","ex vivo TBR (mean ± SD), HT-29 tumor [3]"
250000,0.0135 ± 0.0016,4,1.8 ± 0.4,6.0 ± 1.1,4.2 ± 0.7,1.2 ± 0.1,0.9 ± 0.2,5.4 ± 0.8,80,6.5 ± 2.2,about 10%,reduced in a dose-dependent manner,CC1(C)C(/C=C/C2=C(Oc3ccc(S(=O)(=O)O)cc3)C(=C/C=C3/N(CCCCCC(=O)NCCCCCCCC(=O)Nc4nnc(S(N)(=O)=O)s4)c4ccc(C(=O)NC[C@H](O)[C@@H](O)[C@H](O)[C@H](O)CO)cc4C3(C)C)/CCC2)=[N+](CCCCS(=O)(=O)[O-])c2ccc(C(=O)NC[C@H](O)[C@@H](O)[C@H](O)[C@H](O)CO)cc21 [Compound 1],about 1.5 times,13.4 ± 2.2
250000,0.0061 ± 0.0016,5,1.6 ± 0.3,7.1 ± 1.5,3.3 ± 0.4,1.5 ± 0.3,1.0 ± 0.1,6.8 ± 1.3,105,11.3 ± 1.7,about 10%,,CC(CC[N+]1=C(/C=C/C=C/C=C/C=C2/N(CCCCCC(=O)NCCCCCCCC(=O)Nc3nnc(S(N)(=O)=O)s3)c3ccc(C(=O)NC[C@H](O)[C@@H](O)[C@H](O)[C@H](O)CO)cc3C2(C)C)C(C)(C)c2cc(C(=O)NC[C@H](O)[C@@H](O)[C@H](O)[C@H](O)CO)ccc21)S(=O)(=O)[O-] (some centres unmarked) [Compound 2],about 1.5 times,23.1 ± 6.7
